The results in this text go back to patent US9046782B2, “Resist composition for negative tone development and pattern forming method using the same” (FUJIFILM Corporation, priority 2007, dated 2015).

The structures appear in SMILES notation.

This series is described as follows: Vapor pressure of solvents for negative tone development and rinsing. The settings on record: value at 20° C.
As for `CCCCC(C)=O` [2-Hexanone], the “Vapor Pressure” value stood at 0.36 kPa. Next, `CCCCCC(C)O` (stereo not drawn) [2-Heptanol]: 0.133 kPa. Next, `CCCCCCCCCC` [Decane]: 0.17 kPa. On to `CCCCOC(C)=O` [Butyl acetate], for which the “Vapor Pressure” value is recorded as 1.2 kPa. Next, `CCCOCCC` [Dipropyl ether]: 8.33 kPa; `CCCCCCCO` [1-Heptanol]: 0.015 kPa. On to `CC(=O)CC(C)C` [Methyl isobutyl ketone], for which the “Vapor Pressure” value came out at 2.1 kPa.

For the compound `CCCCCCCCCCCC` [Dodecane], the “Vapor Pressure” value is reported as 0.04 kPa. Next, `CCCCCCO` [1-Hexanol]: 0.13 kPa; `CC(=O)OCCC(C)C` [Isoamyl acetate]: 0.53 kPa; `CC(C)CCO` [3-Methyl-1-butanol]: 0.4 kPa. Regarding `CCC(C)=O` [Methyl ethyl ketone], the “Vapor Pressure” value is recorded as 10.5 kPa.
